Measurements: PMC5665424, “Software-aided approach to investigate peptide structure and metabolic susceptibility of amide bonds in peptide drugs based on high resolution mass spectrometry” (PLoS ONE, 2017)
“Also recorded” adds a separate entry of the source.

Tests used:
pancreatic elastase = target: T1, pancreatic elastase (Sus scrofa, UniProt P00772); assay: Incubation with pancreatic elastase in simulated intestinal fluid, LC-HRMS; type: in vitro ADME, porcine; settings: elastase 500 μg/mL in SIF pH 7.4-7.6, 10 μM peptide, 37°C, 0, 5, 15, 45, 120 min, internal standard melanotan, Fig 11c
T1 construct: porcine pancreas; purchased Sigma (Sigma Aldrich) E0258; host or cells: porcine pancreas (tissue-derived)
Protocol: (§1) Incubations with dataset-1 were performed using isolated enzymes. […] All incubations were conducted at 37°C.
Supporting Table 1: Incubation conditions and proteases characteristics
Chymotrypsin Trypsin Elastase Pepsin
αChymotrypsin from Trypsin from Elastase from Pepsin from porcine
Protease bovine pancreas, bovine pancreas, porcine pancreas, gastric mucosa,
Internal Melanotan II acetate salt,
Mobile Phase Water +0.1% formic acid
Mobile Phase Acetonitrile+0.1% formic acid […]
Quadrupole -Orbitrap Mass Spectrometer

neprilysin (NEP) = neprilysin (NEP) (Homo sapiens, UniProt P08473); assay: Incubation with neprilysin in Hank's buffered salt solution, LC-HRMS; settings: NEP 2 μg/mL in Hank's buffered salt solution, 37°C, 2, 4, 8, 24 hr (GLP-1 0, 5, 15, 30, 60 min), Fig 12b
Protocol: as §1
(§2) The dataset-2 peptide incubations were performed at Roche Innovation Center Basel F. Hoffmann-La Roche Ltd., (Hoffmann-La Roche, Basel, Switzerland) using isolated enzymes. For both DPP-4 and NEP incubations, a solution of the respective enzyme in Hank’s buffered salt solution was pre-incubated at 37°C for 3 to 5 min, in 96-well plate Nunc (Thermo Scientific, 163320) before the addition of 30 μL of test substance to give final concentrations of 2 μg/mL DPP-4 or 2 μg/mL NEP. Negative control samples were prepared under the same conditions (see above), containing each enzyme but without adding test compound. […] Reactions were started with the addition of […] and then quenched at each time point with 75 μL cold acetonitrile containing 1% FA followed by thorough mixing. The samples were centrifuged at 4°C for 15 min at 14,000g, and the supernatant was collected. The metabolite profile was immediately analyzed.
(§3) To generate dataset-2, a Thermo Scientific Dionex UltiMate 3000 RS UPLC system in combination with a Pal autosampler (CTC Analytics AG, Zwingen, Switzerland) was used. Chromatographic separation was performed using an Acquity CSHT Phenyl-Hexyl Column (1.7 μm, 2.1 x 100 mm). The mobile phases consisted of A: H2O/0.1% FA and B: methanol/0.1% FA. […]

[1] = target: T2, dipeptidyl peptidase-4 (DPP-4) (Homo sapiens, UniProt P27487); assay: Incubation with dipeptidyl peptidase-4 in Hank's buffered salt solution, LC-HRMS; type: in vitro ADME; settings: DPP-4 2 μg/mL in Hank's buffered salt solution
T2 construct: purchased Sigma D3446; host or cells: Sf9 cells
Protocol: as §1, §2, §3

trypsin = target: T3, trypsin (Bos taurus, UniProt P00760); assay: Incubation with trypsin in simulated intestinal fluid, LC-HRMS
T3 sequence (P00760 24-246): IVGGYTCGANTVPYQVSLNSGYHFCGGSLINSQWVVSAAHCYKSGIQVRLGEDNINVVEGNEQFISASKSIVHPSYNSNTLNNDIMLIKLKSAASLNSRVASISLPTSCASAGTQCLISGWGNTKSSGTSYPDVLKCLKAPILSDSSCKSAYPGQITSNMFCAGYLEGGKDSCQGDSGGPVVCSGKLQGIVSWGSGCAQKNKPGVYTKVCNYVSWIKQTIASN
Protocol: (§4) Incubations with dataset-1 were performed using isolated enzymes. We investigated serine proteases like trypsin, chymotrypsin, and pancreatic elastase (E 3.4.21.1, E 3.4.21.4, E 3.4.21.36) at a concentration of 500 μg/mL in simulated intestinal fluid (SIF) and the aspartic protease pepsin (E 3.4.23.1) at a concentration of 500 μg/mL in simulated gastric fluid (SGF). Proteases were purchased from Sigma Aldrich and SIF and SGF were purchased from RICCA Chemical Company (Arlington, TX, USA). […] All incubations were conducted at 37°C.
Negative control samples were prepared under the same conditions of the incubation (see above), containing each enzyme but without adding probe compounds. Probe compounds were added to 96-well plates (Micronic 0.75 mL V-bottom) using a Hewlett Packard HPD300e. […] Each well was a time point, with five timepoints (0, 5, 15, 45 and 120 min) per compound per protease. Incubations were carried out using a Hamilton MicroLab STAR Plus liquid-handler to initiate, conduct and stop incubation reactions within a single automated method. The incubation plates were placed in heated shakers present on the deck of the liquid-handler and operated at 37°C and 400 rpm shaking speed. Reactions were started with the addition of the enzyme at the appropriate time to allow for all reactions to be quenched at a single time. Incubation quenching was again carried out by the Hamilton STAR Plus with the addition of 100 μL of acetonitrile with 1% formic acid (FA) or 1% ammonium hydroxide (pepsin-only) and the internal standard (melanotan) at a concentration of 1 μM. Following reaction quenching, the samples were vortexed for approximately 2 min and the time zero sample was generated by aliquoting 50 nL of the appropriate stock compound into quenched control samples. The samples were then centrifuged in a Beckman Allegra 25R at 6000 rcf for 20 min at 10°C. […] All time points were analyzed using a data-dependent MS/MS method. […]

chymotrypsin = chymotrypsin (Bos taurus, UniProt P00766); assay: Incubation with chymotrypsin in simulated intestinal fluid, LC-HRMS; settings: for site of cleavage (amide hydrolysis) by chymotrypsin: chymotrypsin 500 μg/mL in SIF, 10 μM peptide, 37°C, up to 120 min, metabolite structures from LC-HRMS/MS (Mass-MetaSite)
Protocol: as §4
Negative control samples were prepared under the same conditions of the incubation (see above), containing each enzyme but without adding probe compounds. Probe compounds were added to 96-well plates (Micronic 0.75 mL V-bottom) using a Hewlett Packard HPD300e. […] Each well was a time point, with five timepoints (0, 5, 15, 45 and 120 min) per compound per protease. Incubations were carried out using a Hamilton MicroLab STAR Plus liquid-handler to initiate, conduct and stop incubation reactions within a single automated method. The incubation plates were placed in heated shakers present on the deck of the liquid-handler and operated at 37°C and 400 rpm shaking speed. Reactions were started with the addition of the enzyme at the appropriate time to allow for all reactions to be quenched at a single time. Incubation quenching was again carried out by the Hamilton STAR Plus with the addition of 100 μL of acetonitrile with 1% formic acid (FA) or 1% ammonium hydroxide (pepsin-only) and the internal standard (melanotan) at a concentration of 1 μM. Following reaction quenching, the samples were vortexed for approximately 2 min and the time zero sample was generated by aliquoting 50 nL of the appropriate stock compound into quenched control samples. The samples were then centrifuged in a Beckman Allegra 25R at 6000 rcf for 20 min at 10°C. Resulting supernatant was transferred to Eppendorf LoBind 96-well plates and 1 μL was injected onto a Waters Acquity BEH-C18 1 x 50 mm, 1.7 μm column via a Waters Acquity M-Class ultra-performance liquid chromatography (UPLC) autosampler. All time points were analyzed using a data-dependent MS/MS method.
For dataset-1, chromatographic separation of metabolites was performed using the ACQUITY UPLC system (Waters, Milford, MA, USA). The ACQUITY UPLC BEH C18 column (1.0 × 50 mm, 1.7 μm) was heated to 60°C. The mobile phase consisted of 0.1% FA in water (eluent A) and 0.1% formic acid in acetonitrile (eluent B) at a flow rate of 75 μL/min. The initial condition was 10% eluent B, which was maintained for 0.1 min. Eluent B was then increased via a linear gradient to 40% until 3.1 min and further increased to 90% via linear gradient to 3.6 min. Eluent B was then held at 90% until 4.0 min when it was ramped down to 10% by 4.05 min and held until the end of the run at 6 min. […] Full scan/data-dependent MS/MS analyses were run on a Thermo Scientific Q-Exactive Plus mass spectrometer operated in positive electrospray ionization (ESI) mode. The MS and MS/MS acquisition scans were operated with a resolution setting of 17,500 for both, with an automatic gain control (AGC) setting of 1E6 and maximum injection time of 100 ms for MS and AGC of 2E5 and max injection time of 50 ms for full scan/data-dependent MS/MS.

Sequence of neprilysin (NEP) (P08473 whole entry): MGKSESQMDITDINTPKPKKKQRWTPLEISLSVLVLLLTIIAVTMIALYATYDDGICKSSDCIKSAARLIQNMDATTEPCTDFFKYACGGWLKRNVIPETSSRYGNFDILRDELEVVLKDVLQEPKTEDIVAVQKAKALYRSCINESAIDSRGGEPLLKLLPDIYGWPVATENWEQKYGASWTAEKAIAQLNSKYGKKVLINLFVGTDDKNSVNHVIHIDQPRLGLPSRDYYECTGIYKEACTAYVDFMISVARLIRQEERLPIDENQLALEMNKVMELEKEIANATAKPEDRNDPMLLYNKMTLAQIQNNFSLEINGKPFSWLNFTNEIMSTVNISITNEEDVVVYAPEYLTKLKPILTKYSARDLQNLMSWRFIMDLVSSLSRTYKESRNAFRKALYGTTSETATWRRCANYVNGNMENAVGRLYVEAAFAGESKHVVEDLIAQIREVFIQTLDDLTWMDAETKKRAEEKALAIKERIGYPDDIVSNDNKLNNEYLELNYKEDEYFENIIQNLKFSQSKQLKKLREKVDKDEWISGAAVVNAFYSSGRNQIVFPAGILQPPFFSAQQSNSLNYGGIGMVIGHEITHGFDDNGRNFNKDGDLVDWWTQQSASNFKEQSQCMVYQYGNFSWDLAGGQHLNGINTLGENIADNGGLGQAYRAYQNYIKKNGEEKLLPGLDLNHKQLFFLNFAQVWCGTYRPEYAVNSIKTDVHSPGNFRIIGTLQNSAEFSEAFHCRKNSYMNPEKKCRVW
T1 sequence (P00772 27-266): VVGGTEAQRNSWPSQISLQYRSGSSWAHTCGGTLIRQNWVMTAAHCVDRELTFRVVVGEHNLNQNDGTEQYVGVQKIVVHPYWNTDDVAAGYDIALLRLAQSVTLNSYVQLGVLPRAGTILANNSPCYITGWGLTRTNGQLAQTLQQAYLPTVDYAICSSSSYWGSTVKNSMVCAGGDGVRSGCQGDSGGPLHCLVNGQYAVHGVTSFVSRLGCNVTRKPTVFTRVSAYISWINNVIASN
T2 sequence (P27487 whole entry): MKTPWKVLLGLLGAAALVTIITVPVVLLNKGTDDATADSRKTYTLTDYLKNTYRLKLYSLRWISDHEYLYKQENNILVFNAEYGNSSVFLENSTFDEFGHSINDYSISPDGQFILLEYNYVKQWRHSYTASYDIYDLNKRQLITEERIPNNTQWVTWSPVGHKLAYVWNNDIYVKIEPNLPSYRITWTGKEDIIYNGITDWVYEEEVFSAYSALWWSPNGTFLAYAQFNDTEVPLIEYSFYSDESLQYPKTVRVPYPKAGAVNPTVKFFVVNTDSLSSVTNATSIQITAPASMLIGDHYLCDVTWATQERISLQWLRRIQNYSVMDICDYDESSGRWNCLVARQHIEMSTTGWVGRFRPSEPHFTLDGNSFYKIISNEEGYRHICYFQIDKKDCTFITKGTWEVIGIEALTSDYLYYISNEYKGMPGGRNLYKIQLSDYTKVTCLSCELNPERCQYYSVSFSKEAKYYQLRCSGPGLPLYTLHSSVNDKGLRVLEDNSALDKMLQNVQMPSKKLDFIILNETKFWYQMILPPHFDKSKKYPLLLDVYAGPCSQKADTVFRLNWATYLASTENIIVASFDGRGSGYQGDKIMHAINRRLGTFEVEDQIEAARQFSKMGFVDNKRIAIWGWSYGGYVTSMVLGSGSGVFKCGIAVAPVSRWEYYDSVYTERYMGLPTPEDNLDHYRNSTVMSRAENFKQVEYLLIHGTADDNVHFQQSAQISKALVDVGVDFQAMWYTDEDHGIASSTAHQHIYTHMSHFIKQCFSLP

Glp-His-Trp-Ser-Tyr-HisBzl-Leu-Arg-Pro-NHEt [histrelin, Histrelin, synthetic LHRH analogue, Sigma L2761]
metabolic stability with pancreatic elastase: percent parent peptide remaining with respect to time, compared in words (pancreatic elastase): slower than for leuprolide

CCCCCCCCCCCCCCCC(=O)N[C@@H](CCC(=O)NCCCC[C@H](NC(=O)[C@H](C)NC(=O)[C@H](C)NC(=O)[C@H](CCC(N)=O)NC(=O)CNC(=O)[C@H](CCC(=O)O)NC(=O)[C@H](CC(C)C)NC(=O)[C@H](Cc1ccc(O)cc1)NC(=O)[C@H](CO)NC(=O)[C@H](CO)NC(=O)[C@@H](NC(=O)[C@H](CC(=O)O)NC(=O)[C@H](CO)NC(=O)[C@@H](NC(=O)[C@H](Cc1ccccc1)NC(=O)[C@@H](NC(=O)CNC(=O)[C@H](CCC(=O)O)NC(=O)[C@H](C)NC(=O)[C@@H](N)Cc1cnc[nH]1)[C@@H](C)O)[C@@H](C)O)C(C)C)C(=O)N[C@@H](CCC(=O)O)C(=O)N[C@@H](Cc1ccccc1)C(=O)N[C@H](C(=O)N[C@@H](C)C(=O)N[C@@H](Cc1c[nH]c2ccccc12)C(=O)N[C@@H](CC(C)C)C(=O)N[C@H](C(=O)N[C@@H](CCCNC(=N)N)C(=O)NCC(=O)N[C@@H](CCCNC(=N)N)C(=O)NCC(=O)O)C(C)C)[C@@H](C)CC)C(=O)O [liraglutide, Liraglutide]
metabolic stability with NEP: percent parent peptide remaining with respect to time, compared in words (neprilysin (NEP)): digested faster than the other compounds; also recorded: NEP acted slower as compared to DPP-4 | metabolic stability with DPP-4: percent parent peptide remaining with respect to time, compared in words ([1]; 37°C, 2, 4, 8, 24 hr (GLP-1 0, 5, 15, 30, 60 min), LC-HRMS, Fig 12a): digested faster than the other compounds | site of cleavage (amide hydrolysis) by DPP-4 ([1]; 37°C, metabolite structures from LC-HRMS/MS (Mass-MetaSite)): mainly metabolized by DPP-4 at the SoC Ala-Glu

C[C@@H](O)[C@@H]1NC(=O)[C@H](CCCCN)NC(=O)[C@@H](Cc2c[nH]c3ccccc23)NC(=O)[C@H](Cc2ccccc2)NC(=O)[C@@H](NC(=O)[C@H](N)Cc2ccccc2)CSSC[C@@H](C(=O)N[C@H](CO)[C@@H](C)O)NC1=O [octreotide, Octreotide]
metabolic stability with pancreatic elastase: percent parent peptide remaining with respect to time, compared in words (pancreatic elastase): digested significantly faster than the larger secretin and calcitonin, but it was slower than oxytocin

Glp-His-Trp-Ser-Tyr-Ser-tBu-Leu-Arg-Pro-NHNHCONH2 [goserelin, Goserelin]
site of cleavage (amide hydrolysis) by trypsin (trypsin; trypsin 500 μg/mL in SIF, 10 μM peptide, 37°C, up to 120 min, metabolite structures from LC-HRMS/MS (Mass-MetaSite)): also when the C-terminal Pro was modified to Pro-NHNHCONH2 in goserelin

CCNC(=O)[C@@H]1CCCN1C(=O)[C@H](CCCNC(=N)N)NC(=O)[C@H](CC(C)C)NC(=O)[C@@H](COC(C)(C)C)NC(=O)[C@H](Cc1ccc(O)cc1)NC(=O)[C@H](CO)NC(=O)[C@H](Cc1c[nH]c2ccccc12)NC(=O)[C@H](Cc1cnc[nH]1)NC(=O)[C@@H]1CCC(=O)N1 [buserelin, Buserelin]
site of cleavage (amide hydrolysis) by chymotrypsin (chymotrypsin): amide hydrolysis of the Trp-Ser bond; also recorded: amide hydrolysis of the Tyr-D-Ser(tBu) bond

CC[C@H](C)[C@@H]1NC(=O)[C@H](Cc2ccc(O)cc2)NC(=O)[C@@H](N)CSSC[C@@H](C(=O)N2CCC[C@H]2C(=O)N[C@@H](CC(C)C)C(=O)NCC(N)=O)NC(=O)[C@H](CC(N)=O)NC(=O)[C@H](CCC(N)=O)NC1=O [oxytocin, Oxytocin]
metabolic stability with trypsin: percent parent peptide remaining with respect to time, compared in words (trypsin; trypsin 500 μg/mL in SIF pH 7.4-7.6, 10 μM peptide, 37°C, 0, 5, 15, 45, 120 min, LC-HRMS, internal standard melanotan, Fig 11a): digested slower than calcitonin; also recorded: hydrolyzed slower than all other peptides | metabolic stability with chymotrypsin: percent parent peptide remaining with respect to time, compared in words (chymotrypsin; chymotrypsin 500 μg/mL in SIF pH 7.4-7.6, 10 μM peptide, 37°C, 0, 5, 15, 45, 120 min, LC-HRMS, internal standard melanotan, Fig 11b): digested slower than calcitonin | site of cleavage (amide hydrolysis) by chymotrypsin (chymotrypsin): cleavage of Leu-Gly; also recorded: Tyr-Ile (M1-38, cycle opening)
